Results published in patent US20070049564A1 (Wyeth, priority 2005, published 2007).
Converted amounts (≈) assume the structure as drawn. Where two headings read alike, the source gives them in different places.

Tests used:
E. coli GC 3226 = assay: MIC, broth microdilution; settings: Escherichia coli
S. agalactiae GC 4564 = assay: MIC, broth microdilution; settings: Streptococcus agalactiae
E. coli GC 2232 = assay: MIC, broth microdilution; settings: Escherichia coli
E. coli GC 6465 = assay: MIC, broth microdilution; settings: Escherichia coli
S. aureus GC 6469 = assay: MIC, broth microdilution; settings: Staphylococcus aureus
E. coli GC 2231 = assay: MIC, broth microdilution; settings: Escherichia coli
E. coli GC 2272 = assay: MIC, broth microdilution; settings: Escherichia coli
E. coli = assay: Range of MIC for E. coli strains; settings: Escherichia coli
S. aureus GC 4536 = assay: MIC, broth microdilution; settings: Staphylococcus aureus
E. faecalis GC 2265 = assay: MIC, broth microdilution; settings: Enterococcus faecalis
S. typhimurium GC 2172 = assay: MIC, broth microdilution; settings: Salmonella enterica, TYPHIMURIUM
S. aureus GC 6467 = assay: MIC, broth microdilution; settings: Staphylococcus aureus
E. coli GC 2203 = assay: MIC, broth microdilution; settings: Escherichia coli
S. pneumoniae* GC 4465 = assay: MIC, broth microdilution; settings: Streptococcus pneumoniae
Staph. = assay: Range of MIC for Staph. strains, including MRSA; settings: Staphylococcus aureus
E. coli GC 4560 = assay: MIC, broth microdilution; settings: Escherichia coli
E. faecium GC 2243 = assay: MIC, broth microdilution; settings: Enterococcus faecium
E. faecalis GC 2267 = assay: MIC, broth microdilution; settings: Enterococcus faecalis
S. aureus GC 6466 = assay: MIC, broth microdilution; settings: Staphylococcus aureus
E. faecalis GC 4555 = assay: MIC, broth microdilution; settings: Enterococcus faecalis
[1] = read-out: MINIMAL INHIBITORY CONCENTRATION MIC, Human Serum
[2] = read-out: MINIMAL INHIBITORY CONCENTRATION MIC, Mouse Serum
[3] = read-out: MINIMAL INHIBITORY CONCENTRATION MIC, Water

In the case of `CN(C)c1cc(NC(=O)CN(C(=O)OCOC(=O)C2CCCCC2)C(C)(C)C)c(O)c2c1C[C@H]1C[C@H]3[C@H](N(C)C)C(O)=C(C(N)=O)C(=O)[C@@]3(O)C(O)=C1C2=O` [Example 50, ({[(2-{[(5aR,6aS,7S,10aS)-9-(aminocarbonyl)-4,7-bis(dimethylamino)-1,8,10a,11-tetrahydroxy-10,12-dioxo-5,5a,6,6a,7,10,10a,12-octahydrotetracen-2-yl]amino}-2-oxoethyl)(tert-butyl)amino]carbonyl}oxy)methyl cyclohexanecarboxylate], the MIC (E. coli GC 3226; GC3226, read-out: MINIMAL INHIBITORY CONCENTRATION MIC, Human Serum) is reported as 8 µg/mL (≈ 10.4 µM), the MIC (E. coli GC 3226; GC3226, read-out: MINIMAL INHIBITORY CONCENTRATION MIC, Mouse Serum) is reported as 1 µg/mL (≈ 1.3 µM) and the MIC (E. coli GC 3226; GC3226, read-out: MINIMAL INHIBITORY CONCENTRATION MIC, Water) is reported as 32 µg/mL (≈ 41.6 µM). It also gave an MIC (S. agalactiae GC 4564; GC4564, read-out: MINIMAL INHIBITORY CONCENTRATION MIC, Human Serum) of 0.25 µg/mL (≈ 0.325 µM), an MIC (S. agalactiae GC 4564; GC4564, read-out: MINIMAL INHIBITORY CONCENTRATION MIC, Mouse Serum) of 0.25 µg/mL (≈ 0.325 µM) and an MIC (S. agalactiae GC 4564; GC4564, read-out: MINIMAL INHIBITORY CONCENTRATION MIC, Water) of 0.25 µg/mL (≈ 0.325 µM). The MIC (E. coli GC 2232; GC2232, read-out: MINIMAL INHIBITORY CONCENTRATION MIC, Human Serum) was 8 µg/mL (≈ 10.4 µM), the MIC (E. coli GC 2232; GC2232, read-out: MINIMAL INHIBITORY CONCENTRATION MIC, Mouse Serum) was 1 µg/mL (≈ 1.3 µM) and the MIC (E. coli GC 2232; GC2232, read-out: MINIMAL INHIBITORY CONCENTRATION MIC, Water) was 32 µg/mL (≈ 41.6 µM). For the same compound, the MIC (E. coli GC 6465; GC6465, read-out: MINIMAL INHIBITORY CONCENTRATION MIC, Human Serum) was 16 µg/mL (≈ 20.8 µM), the MIC (E. coli GC 6465; GC6465, read-out: MINIMAL INHIBITORY CONCENTRATION MIC, Mouse Serum) was 2 µg/mL (≈ 2.6 µM) and the MIC (E. coli GC 6465; GC6465, read-out: MINIMAL INHIBITORY CONCENTRATION MIC, Water) was > 64 µg/mL. It also gave an MIC (S. aureus GC 6469; GC6469, read-out: MINIMAL INHIBITORY CONCENTRATION MIC, Human Serum) of 1 µg/mL (≈ 1.3 µM), an MIC (S. aureus GC 6469; GC6469, read-out: MINIMAL INHIBITORY CONCENTRATION MIC, Mouse Serum) of 1 µg/mL (≈ 1.3 µM) and an MIC (S. aureus GC 6469; GC6469, read-out: MINIMAL INHIBITORY CONCENTRATION MIC, Water) of 2 µg/mL (≈ 2.6 µM). For the same compound, the MIC (E. coli GC 2231; GC2231, read-out: MINIMAL INHIBITORY CONCENTRATION MIC, Human Serum) was 8 µg/mL (≈ 10.4 µM), the MIC (E. coli GC 2231; GC2231, read-out: MINIMAL INHIBITORY CONCENTRATION MIC, Mouse Serum) was 1 µg/mL (≈ 1.3 µM) and the MIC (E. coli GC 2231; GC2231, read-out: MINIMAL INHIBITORY CONCENTRATION MIC, Water) was 64 µg/mL (≈ 83.1 µM). For the same compound, the MIC (E. coli GC 2272; GC2272, read-out: MINIMAL INHIBITORY CONCENTRATION MIC, Human Serum) was 4 µg/mL (≈ 5.2 µM), the MIC (E. coli GC 2272; GC2272, read-out: MINIMAL INHIBITORY CONCENTRATION MIC, Mouse Serum) was 1 µg/mL (≈ 1.3 µM) and the MIC (E. coli GC 2272; GC2272, read-out: MINIMAL INHIBITORY CONCENTRATION MIC, Water) was 32 µg/mL (≈ 41.6 µM). For the same compound, the MIC (E. coli; 20 h, read-out: Range of MIC, E. coli (Mouse Serum)) was 1 to 2 µg/mL (≈ 1.3 to 2.6 µM), the MIC (E. coli; read-out: Minimum inhibitory concentration (MIC), E. coli (Human Serum)) was 4 to 16 µg/mL (≈ 5.2 to 20.8 µM) and the MIC (E. coli; read-out: Minimum inhibitory concentration (MIC), E. coli (water)) was 32 to 64 µg/mL (≈ 41.6 to 83.1 µM). It also gave an MIC (E. coli; read-out: Range of MIC, E. coli (Water)) of 32 to 64 µg/mL (≈ 41.6 to 83.1 µM), an MIC (S. aureus GC 4536; GC4536, read-out: MINIMAL INHIBITORY CONCENTRATION MIC, Human Serum) of 0.25 µg/mL (≈ 0.325 µM) and an MIC (S. aureus GC 4536; GC4536, read-out: MINIMAL INHIBITORY CONCENTRATION MIC, Mouse Serum) of 0.25 µg/mL (≈ 0.325 µM). The MIC (S. aureus GC 4536; GC4536, read-out: MINIMAL INHIBITORY CONCENTRATION MIC, Water) was 0.5 µg/mL (≈ 0.649 µM), the MIC (E. faecalis GC 2265; GC2265, read-out: MINIMAL INHIBITORY CONCENTRATION MIC, Human Serum) was 2 µg/mL (≈ 2.6 µM) and the MIC (E. faecalis GC 2265; GC2265, read-out: MINIMAL INHIBITORY CONCENTRATION MIC, Mouse Serum) was 1 µg/mL (≈ 1.3 µM). It also gave an MIC (E. faecalis GC 2265; GC2265, read-out: MINIMAL INHIBITORY CONCENTRATION MIC, Water) of 4 µg/mL (≈ 5.2 µM), an MIC (S. typhimurium GC 2172; [1]) of 32 µg/mL (≈ 41.6 µM) and an MIC (S. typhimurium GC 2172; [2]) of 4 µg/mL (≈ 5.2 µM). For the same compound, the MIC (S. typhimurium GC 2172; [3]) was > 64 µg/mL, the MIC (S. aureus GC 6467; GC6467, read-out: MINIMAL INHIBITORY CONCENTRATION MIC, Human Serum) was 0.25 µg/mL (≈ 0.325 µM) and the MIC (S. aureus GC 6467; GC6467, read-out: MINIMAL INHIBITORY CONCENTRATION MIC, Mouse Serum) was 0.25 µg/mL (≈ 0.325 µM). It also gave an MIC (S. aureus GC 6467; GC6467, read-out: MINIMAL INHIBITORY CONCENTRATION MIC, Water) of 2 µg/mL (≈ 2.6 µM), an MIC (E. coli GC 2203; GC2203, read-out: MINIMAL INHIBITORY CONCENTRATION MIC, Human Serum) of 8 µg/mL (≈ 10.4 µM) and an MIC (E. coli GC 2203; GC2203, read-out: MINIMAL INHIBITORY CONCENTRATION MIC, Mouse Serum) of 1 µg/mL (≈ 1.3 µM). For the same compound, the MIC (E. coli GC 2203; GC2203, read-out: MINIMAL INHIBITORY CONCENTRATION MIC, Water) was 32 µg/mL (≈ 41.6 µM), the MIC (S. pneumoniae* GC 4465; [1]) was < 0.06 µg/mL and the MIC (S. pneumoniae* GC 4465; [2]) was < 0.06 µg/mL. For the same compound, the MIC (S. pneumoniae* GC 4465; [3]) was < 0.06 µg/mL, the MIC (Staph.; MRSA, read-out: Range of MIC, Staph (Mouse Serum)) was 0.25 to 2 µg/mL (≈ 0.325 to 2.6 µM) and the MIC (Staph.; MRSA, read-out: Range of MIC, Staph (Water)) was 0.25 to 4 µg/mL (≈ 0.325 to 5.2 µM). It also gave an MIC (Staph.; read-out: Minimum inhibitory concentration (MIC), Staph (Human Serum)) of 0.25 to 2 µg/mL (≈ 0.325 to 2.6 µM), an MIC (Staph.; read-out: Minimum inhibitory concentration (MIC), Staph (Water)) of 0.25 to 4 µg/mL (≈ 0.325 to 5.2 µM) and an MIC (E. coli GC 4560; GC4560, read-out: MINIMAL INHIBITORY CONCENTRATION MIC, Human Serum) of 2 µg/mL (≈ 2.6 µM). The MIC (E. coli GC 4560; GC4560, read-out: MINIMAL INHIBITORY CONCENTRATION MIC, Mouse Serum) was 0.5 µg/mL (≈ 0.649 µM), the MIC (E. coli GC 4560; GC4560, read-out: MINIMAL INHIBITORY CONCENTRATION MIC, Water) was 4 µg/mL (≈ 5.2 µM) and the MIC (E. faecium GC 2243; GC2243, read-out: MINIMAL INHIBITORY CONCENTRATION MIC, Human Serum) was 0.25 µg/mL (≈ 0.325 µM). It also gave an MIC (E. faecium GC 2243; GC2243, read-out: MINIMAL INHIBITORY CONCENTRATION MIC, Mouse Serum) of 0.25 µg/mL (≈ 0.325 µM), an MIC (E. faecium GC 2243; GC2243, read-out: MINIMAL INHIBITORY CONCENTRATION MIC, Water) of 0.5 µg/mL (≈ 0.649 µM) and an MIC (E. faecalis GC 2267; GC2267, read-out: MINIMAL INHIBITORY CONCENTRATION MIC, Human Serum) of 2 µg/mL (≈ 2.6 µM). The MIC (E. faecalis GC 2267; GC2267, read-out: MINIMAL INHIBITORY CONCENTRATION MIC, Mouse Serum) was 1 µg/mL (≈ 1.3 µM), the MIC (E. faecalis GC 2267; GC2267, read-out: MINIMAL INHIBITORY CONCENTRATION MIC, Water) was 4 µg/mL (≈ 5.2 µM) and the MIC (S. aureus GC 6466; GC6466, read-out: MINIMAL INHIBITORY CONCENTRATION MIC, Human Serum) was 0.25 µg/mL (≈ 0.325 µM). The MIC (S. aureus GC 6466; GC6466, read-out: MINIMAL INHIBITORY CONCENTRATION MIC, Mouse Serum) was 0.25 µg/mL (≈ 0.325 µM), the MIC (S. aureus GC 6466; GC6466, read-out: MINIMAL INHIBITORY CONCENTRATION MIC, Water) was 0.25 µg/mL (≈ 0.325 µM) and the MIC (E. faecalis GC 4555; GC4555, read-out: MINIMAL INHIBITORY CONCENTRATION MIC, Human Serum) was 2 µg/mL (≈ 2.6 µM). The MIC (E. faecalis GC 4555; GC4555, read-out: MINIMAL INHIBITORY CONCENTRATION MIC, Mouse Serum) was 1 µg/mL (≈ 1.3 µM) and the MIC (E. faecalis GC 4555; GC4555, read-out: MINIMAL INHIBITORY CONCENTRATION MIC, Water) was 4 µg/mL (≈ 5.2 µM).
